The values that follow come from US8207167B2, “Aryl-phenyl-sulfonamide-phenylene compounds and their use” (PIMCO 2664 Limited, priority 2008, dated 2012).

One may read the solubility as the concentration that dissolves in the medium under given conditions. Usually bioavailability stands for dose-corrected exposure relative to a reference, in per cent. Read a low bioavailability as little systemic uptake.

The structures appear in SMILES notation. Converted amounts (≈) assume the structure as drawn. Where two headings read alike, the source gives them in different places.

A short description of data set [1]: Thermodynamic aqueous solubility in fasted state simulated intestinal fluid (FaSSIF). In kind it is physicochemical. The note with it: fasted state simulated intestinal fluid (FaSSIF), pH 6.5, thermodynamic from solid, 25° C., 24 hours equilibration, HPLC. As to the method: Initial screening of candidate compounds was performed using in vitro assays to determine potency, metabolic stability and solubility in biologically relevant fluids. Potency was assessed using a viability assay based on the survival of the J774 macrophage cell line. Macrophages are closely related to osteoclasts and have been used previously as a model system for osteoclast survival (see, e.g., Luckman et al., 1998). Like osteoclasts, J774 macrophages are dependent on continued NFκB activation for survival, thereby providing a valuable screen for compounds with anti-inflammatory activity. Metabolic stability was measured by determining the rate of disappearance of compound in the presence of human liver microsomal preparations, as quantified by LC-MS/MS. Solubility was measured by equilibration of the compound in fasted state simulated intestinal fluid (FaSSIF) and quantified by HPLC.
Thermodynamic aqueous solubility was measured by equilibration of a number of APSAP compounds, in the solid state, with fasted state simulated intestinal fluid (FaSSIF) and quantified by HPLC. Measurement of solubility in FaSSIF provides a valuable model for the prediction of drug dissolution following oral administration.
Preparation of blank FaSSIF: NaOH pellets (174 mg), NaH2PO4.2H2O (2.235 g), and NaCl (3.093 g) were dissolved in 500 mL of water. The pH was adjusted to 6.5 using 1 M NaOH solution.
Preparation of FaSSIF: Sodium taurocholate (165 mg) was dissolved in 25 mL blank FaSSIF. 0.6 mL of a solution containing 100 mg/mL lecithin in methylene chloride was added. The methylene chloride was eliminated under vacuum at about 40° C. The vacuum was drawn for 15 minutes at 250 mbar, followed by 15 minutes at 100 mbar. […] After cooling to room temperature, the solution was then adjusted to 100 mL with blank FaSSIF.
The suspension was equilibrated at 25° C. for 24 hours, and then the pH was measured. The suspension was then filtered through a glass fibre C filter into a 96-well plate. The filtrate was then diluted by a factor of 100. Quantification was made by HPLC with reference to a standard solution of compound at approximately 0.1 mg/mL in DMSO. Different volumes of the standard, diluted and undiluted sample solutions were injected. The solubility was calculated using the peak areas determined by integration of the peak found at the same retention time as the principal peak in the standard injection. Analysis was performed on an Agilent HP1100 series system equipped with a diode array detector and using ChemStation software vB.02.01-SR1.

Data set [2] can be described thus: In vivo pharmacokinetics in rat, oral and intravenous. The following applies: 2.5 mg/kg; for half-life: read-out: T½ (converted). Also noted: species or system Sprague-Dawley rats. The procedure:
Absorption and metabolic stability were studied using an in vivo pharmacokinetics assay. Drug levels were assessed using ultra-performance LC/TOF-MS.
Three male Sprague-Dawley rats, 200-300 g, were dosed per route. […] Test compound was formulated in 50:50 tetraethylene glycol:PBS for both routes. Animals were given free access to food throughout the study. On the day prior to dosing, the carotid artery was cannulated for sample collection and for the intravenous study, the jugular vein was cannulated to enable dosing.
Blood samples were taken from the carotid artery at the following time points and placed in heparinised tubes:
Oral dosing—predose, 0.25, 0.5, 1, 2, 4, 8 and 24 hours post dose.
IV dosing—predose, 0.08, 0.25, 0.5, 1, 2, 4 and 8 hours post dose.
Blood samples were centrifuged to obtain plasma, which was transferred to a separate container and frozen at −20° C.
Samples were thawed at room temperature and prepared by protein precipitation with acetonitrile in the ratio 1:2 with plasma, followed by centrifugation for 10 minutes at 16,100×g (Eppendorf 5415D, Eppendorf AG, Hamburg, Germany). The supernatants were collected for analysis. The standard samples were prepared similarly, after spiking blank rat plasma samples to study compound concentrations at 1, 2, 5, 10, 20, 50, 100, 200, 500 and 1000 ng/mL. In addition, extra samples were prepared from 0-1 hour i.v. samples by diluting 1/20 with 50% aqueous acetonitrile to avoid exceeding the linear range of the analytical method.
A Waters Acquity liquid ultra-performance chromatographic system (Waters Corp., Milford, Mass., USA) with autosampler, vacuum degasser and column oven was used. The analytical column used for all compounds was a Waters BEH C18, (2.1×50 mm, 1.7 μm, Waters Corp, Milford, Mass., USA) together with a 0.2 μm on-line filter before the column. The eluents were 0.1% acetic acid (A, pH 3.2) and methanol (B). Gradient elution from 5% to 60% B in two minutes was employed, followed by one minute gradient to 90% B and column equilibration. The flow rate was 0.5 mL/min and the column oven temperature was 35° C. The flow was directed to the MS via Water Acquity photo-diode-array (PDA) detector. LC/TOF-MS data were recorded with a Micromass LCT Premier XE time-of-flight (TOF) mass spectrometer (Micromass Ltd., Manchester, England) equipped with a LockSpray electrospray ionization source. A positive ionization mode of electrospray was used for all compounds. The mass range of m/z 100-900 was acquired. The W-option of the reflector was used, and the DRE (dynamic range enhancement) option was set to on. The mass spectrometer and HPLC system were operated under Micromass MassLynx 4.1 software. Leucine enkephalin ([M+H]^+ m/z 556.2771) was used as a lock mass compound for accurate mass measurements and was delivered into the LockSpray probe with a syringe pump. MassLynx 4.1 software was used for controlling the instrumentation and for data processing.
The pharmacokinetic parameters for the test compounds were calculated by WinNonlin Pro (Pharsight Corp, CA) using standard noncompartmental methods. The elimination phase half-life (t1/2) was calculated by least-squares regression analysis of the terminal linear part of the log concentration−time curve. The area under the plasma concentration−time curve (AUC) was determined by use of the linear trapezoidal rule up to the last measurable concentration and thereafter by extrapolation of the terminal elimination phase to infinity. The tentative oral bioavailability (F) was calculated by dividing the AUC (0-24 hours) after p.o. administration by the AUC (0-8 hours) after i.v. administration, i.e., F=AUC(p.o.)/AUC(i.v), and reported as percentages (%).

As for `O=S(=O)(Nc1cccc(CO)c1)c1ccc(-c2ccc(Cl)cc2Cl)cc1` [ABD455, 2′,4′-dichloro-N-(3-(hydroxymethyl)phenyl)biphenyl-4-sulfonamide, reference compound], the concentration in solution in data set [1] (solubility at 24 h) was 40 µg/mL (≈ 98 µM). Moreover, the AUC came out at 9 ng/mL/min in data set [2] (i.v.) and 1.2 ng/mL/min in data set [2] (p.o.). Also, the half-life in data set [2] (male, Sprague-Dawley, plasma, iv, i.v.) was 31.8 min; in data set [2] (male, Sprague-Dawley, plasma, po, p.o.), 48 min. Further, the bioavailability in data set [2] (male, Sprague-Dawley, plasma, oral, F=AUC(p.o.)/AUC(i.v.)) is 3%.
